Source: patent publication US7390790B2, “Ring-substituted diphenylazetidinones, process for their preparation, medicaments comprising these compounds, and their use” (Sanofi-Aventis Deutschland GmbH, priority 2002, dated 2008)

Test system: cholesterol absorption
Experiment: Cholesterol absorption test: uptake of 14C-cholesterol by the liver
Assay type: in vivo, mouse
Conditions: dose at which the uptake of 14C-cholesterol by the liver was halved (50%), based on a control group; peroral test substance immediately prior to 14C-cholesterol test meal; interpolated from dose-effect curve
Source text: Effect of the compounds of the invention on cholesterol absorption and 3H-taurocholic acid excretion using fecal excrement of mice, rats or hamsters
NMRI mice, Wistar rats, or Golden Syrian hamsters (in groups of n=4-6) were kept in metabolic cages, where they were fed with a standard diet (Altromin, Lage (Lippe)). The afternoon prior to the administration of the radioactive tracers (14C-cholesterol), the feed was removed and the animals were adapted to grates.
Additionally, the animals were labeled s.c. with 3H-TCA (taurocholic acid) (for example 1 μCi/mouse up to 5 μCi/rat) 24 hours prior to the peroral administration of the test meal (14C-cholesterol in Intralipid® 20, Pharmacia-Upjohn).
Cholesterol absorption test: 0.25 ml/mouse Intralipid® 20 (Pharmacia-Upjohn) ((spiked with 0.25 μCi of 14C-cholesterol in 0.1 mg of cholesterol) was administered perorally by gavage.
Test substances were prepared separately in 0.5% methylcellulose (Sigma)/5% Solutol (BASF, Ludwigshafen) or a suitable vehicle.
The administration volume of the test substance was 0.5 ml/mouse. The test substance was administered immediately prior to the test meal (Intralipid labeled with 14C-cholesterol) (cholesterol absorption test).
The feces were collected over a period of 24 h. Fecal elimination of 14C-cholesterol and 3H-taurocholic acid (TCA) was determined after 24 hours.
The livers were removed and homogenized, and aliquots were incinerated in an oximate (Model 307, Packard) to determine the amount of 14C-cholesterol that had been taken up/absorbed.
The amount of ^14C-cholesterol taken up by the liver was based on the administered dose. The ED50 values were interpolated from a dose-effect curve as the dose at which the uptake of 14C-cholesterol by the liver was halved (50%), based on a control group.

Q: `COc1ccc(C2C(CCC(O)c3ccc(F)cc3)C(=O)N2c2ccc(CNC(=O)c3ccc(Oc4ccc(C(=O)NCC(O)C(O)C(O)C(O)CO)cc4)cc3)cc2)cc1` (stereo not drawn) [Example I, 2,3,4,5,6-Pentahydroxyhexylamide of 4-(4-{4-[3-[3-(4-fluorophenyl)-3-hydroxypropyl]-2-(4-methoxyphenyl)-4-oxoazetidin-1-yl]benzylcarbamoyl}phenoxy)benzoic acid] was tested. Which “ED50 (liver)” value did it give?
A: Its value is less than 0.1 mg/mouse.

Q: How did the “ED50 (liver)” value turn out when `O=C(NCc1ccc(N2C(=O)C(CCC(O)c3ccccc3)C2c2ccccc2)cc1)c1ccc(Oc2ccc(C(=O)NCC(O)C(O)C(O)C(O)CO)cc2)cc1` (stereo not drawn) [Example II, 2,3,4,5,6-Pentahydroxyhexylamide of 4-(4-{4-[3-(3-hydroxy-3-phenylpropyl)-2-oxo-4-phenylazetidin-1-yl]benzylcarbamoyl}phenoxy)benzoic acid] was run?
A: Its value is less than 1.0 mg/mouse.

Q: For `O=C1C(CCC(O)c2ccc(F)cc2)C(c2ccc(OCc3ccc(C[N+]45CCN(CC4)CC5)cc3)cc2)N1c1ccc(F)cc1.[Br-]` (stereo not drawn) [Example IV, 1-[4-(4-{1-(4-Fluorophenyl)-3-[3-(4-fluorophenyl)-3-hydroxypropyl]-4-oxoazetidin-2-yl}phenoxymethyl)benzyl]-4-aza-1-azoniabicyclo[2.2.2]octane bromide], which “ED50 (liver)” value is on record?
A: Its value is less than 0.1 mg/mouse.

Q: With `O=C1C(CCC(O)c2ccc(F)cc2)C(c2ccc(OCc3ccc(CNCC(O)C(O)C(O)C(O)CO)cc3)cc2)N1c1ccc(F)cc1` (stereo not drawn) [Example V, 1-(4-Fluorophenyl)-3-[3-(4-fluorophenyl)-3-hydroxypropyl]-4-(4-{4-[(2,3,4,5,6-pentahydroxyhexylamine)methyl]benzyloxy}phenyl)azetidin-2-one] as the molecule, how does the “ED50 (liver)” value read?
A: The value was less than 0.1 mg/mouse.

Q: How did the “ED50 (liver)” value turn out when `O=C(Cc1ccc(C[N+]23CCN(CC2)CC3)cc1)NCc1ccc(C2C(CCC(O)c3ccc(F)cc3)C(=O)N2c2ccc(F)cc2)cc1.O=C([O-])C(F)(F)F` (stereo not drawn) [Example XV, 1-{4-[(4-{1-(4-Fluorophenyl)-3-[3-(4-fluorophenyl)-3-hydroxypropyl]-4-oxoazetidin-2-yl}-benzylcarbamoyl)-methyl]-benzyl}-4-aza-1-azoniabicyclo[2.2.2]octane trifluoroacetate] was run?
A: The value was less than 1.0 mg/mouse.

Q: Which “ED50 (liver)” value does the source give for `O=C1C(CCC(O)c2ccc(F)cc2)C(c2ccc(OCc3cccc(CNCC(O)C(O)C(O)C(O)CO)c3)cc2)N1c1ccc(F)cc1` (stereo not drawn) [IX, 1-(4-Fluorophenyl)-3-[3-(4-fluorophenyl)-3-hydroxypropyl]-4-(4-{3-[(2,3,4,5,6-pentahydroxyhexylamine)methyl]benzyloxy}phenyl)azetidin-2-one] here?
A: The value was less than 0.1 mg/mouse.

Q: How did the “ED50 (liver)” value turn out when `O=C1C(CCC(O)c2ccc(F)cc2)C(c2ccc(OCc3ccccc3C[N+]34CCN(CC3)CC4)cc2)N1c1ccc(F)cc1.[Br-]` (stereo not drawn) [VI, 1-[2-(4-{1-(4-Fluorophenyl)-3-[3-(4-fluorophenyl)-3-hydroxypropyl]-4-oxoazetidin-2-yl}phenoxymethyl)benzyl]-4-aza-1-azoniabicyclo[2.2.2]octane bromide] was run?
A: Its value is 0.3 mg/mouse.

Q: `O=C1C(CCC(O)c2ccc(F)cc2)C(c2ccc(OCc3ccccc3CNCC(O)C(O)C(O)C(O)CO)cc2)N1c1ccc(F)cc1` (stereo not drawn) [VII, 1-(4-Fluorophenyl)-3-[3-(4-fluorophenyl)-3-hydroxypropyl]-4-(4-{2-[(2,3,4,5,6-pentahydroxyhexylamine)methyl]benzyloxy}phenyl)azetidin-2-one] was tested. Which “ED50 (liver)” value did it give?
A: The value was less than 1.0 mg/mouse.

Q: Which “ED50 (liver)” value does the source give for `O=C1C(CCC(O)c2ccc(F)cc2)C(c2ccc(OCc3cccc(C[N+]45CCN(CC4)CC5)c3)cc2)N1c1ccc(F)cc1.[Br-]` (stereo not drawn) [VIII, 1-[3-(4-{1-(4-Fluorophenyl)-3-[3-(4-fluorophenyl)-3-hydroxypropyl]-4-oxoazetidin-2-yl}phenoxymethyl)benzyl]-4-aza-1-azoniabicyclo[2.2.2]octane bromide] here?
A: Its value is less than 1.0 mg/mouse.
